Results taken from ChEMBL document CHEMBL1150913, “Novel cytotoxic cembranoids from the soft coral Sinularia flexibilis” (1998).
≈ marks a conversion by molar mass, not a printed value.

Assays:
Type in all cases: functional
P388 = experiment: Cytotoxicity against mouse P388 cells after 3 days by MTT assay; details: P388, 72 h, read-out: ED50 (the source's name)
KB = experiment: Cytotoxicity against human KB cells after 3 days by MTT assay; details: 72 h, read-out: ED50 (the source's name)
HT-29 = experiment: Cytotoxicity against human HT-29 cells after 6 days by MTT assay; details: HT-29, 144 h, read-out: ED50 (the source's name)
A549 = experiment: Cytotoxicity against human A549 cells after 6 days by MTT assay; details: A549, 144 h, read-out: ED50 (the source's name)

Compound: C=C(C(=O)OC)[C@H]1CC[C@](C)(O)[C@H](O)CC/C(C)=C/CC[C@@](C)(O)[C@@H](O)C1 [SINUFLEXIBILIN]
- EC50 (P388): 0.27 µg/mL (≈ 0.702 µM)
- EC50 (KB): 1.73 µg/mL (≈ 4.5 µM)
- EC50 (HT-29): 0.22 µg/mL (≈ 0.572 µM)
- EC50 (A549): 0.72 µg/mL (≈ 1.87 µM)

Compound: C/C1=C\CC[C@@](C)(O)[C@H]2C[C@H](CC[C@](C)(O)[C@H](O)CC1)[C@@H](C)C(=O)O2 [DIHYDROSINUFLEXOLIDE]
- EC50 (P388): 3.86 µg/mL (≈ 10.9 µM)
- EC50 (KB): > 50 µg/mL
- EC50 (HT-29): 32.4 µg/mL (≈ 91.4 µM)
- EC50 (A549): 16.8 µg/mL (≈ 47.4 µM)

Compound: C=C1C(=O)O[C@@H]2C[C@@H]1CC[C@](C)(O)[C@H](O)CC/C(C)=C/CC[C@@]2(C)O [SINUFLEXOLIDE]
- EC50 (P388): 0.16 µg/mL (≈ 0.454 µM)
- EC50 (KB): 0.46 µg/mL (≈ 1.31 µM)
- EC50 (HT-29): 0.39 µg/mL (≈ 1.11 µM)
- EC50 (A549): 0.68 µg/mL (≈ 1.93 µM)
